How the values were obtained:
[1] = tested on: African trypanosomiasis (sleeping sickness); conditions: cited from earlier work
[2] = in vivo; conditions: rat; for concentration at 24 h: inhaled or intranasal, 3.2 mg/kg/day, aerosol 3.2 mg/kg daily × 4, 24 h after last dose
Protocol: (§1) Rats were treated in groups of four. […] Doses in all trials were calculated as above.
Treatments were well-tolerated. […] There were rare foci of mild thickening of interalveolar septae containing a few histiocytes and some congestion. […] These were also seen in sections from control animals and are common findings in normal rat lung.

[3] = tested on: Pneumocystis carinii; assay: Clinical effectiveness of aerosol pentamidine in prophylaxis of PCP; format: in vivo, human
Protocol: Each aerosol treatment was given over 15-30 minutes. […] 1.0, 1.5,or 2.0 ml aliquots were added to the nebulizer reservoir for doses of 30, 45, or 60 mg, respectively. Sterile pyrogen-free water was added to yield a total volume of 3.0 ml. Treatments were administered by a physician or registered nurse.
Prophylaxis was judged effective for an individual patient if that patient had no proven or probable episodes of PCP. Prophylaxis was considered a proven failure if a patinet developed pneumonia and P. carinii was found in stained preparations obtained by bronchoscopy or lung biopsy. Prophylaxis was considered a probable failure if a patient develops pneumonia and responded to empiric treatment with SXT […]. If a patient died and no autopsy was perfomed, the case was considered not evaluable unless there was evidence that the patient had good antemortem pulmonary function and died from other causes. If the latter conditions were met, the case was considered a probable success.
The treatment period was three months; patients were examined before and after each treatment and underwent pulmonary function testing and biochemical and hematologic tests before treatment no. 1 and after treatment nos. 1, 2, 4, and 6.
A total of 650 treatments were given. Treatment periods ranged from 1-12 months. […] They had no reactions after their first four doses and was receiving several other medications at the time the rash developed. […] Five proven episodes of PCP have occurred among patients who received biweekly doses of 30 mg; six proven episodes of PCP have occurred among patients who were treated with this dose, but who skipped one or more scheduled doses.
A total of 73 patients were enrolled over the past two months with approximately equal numbers at each dose level. […] Patients who were receiving the low dose have since been randomized to receive either 45 or 60 mg. To date two patients receiving 45 mg have had proven episodes of PCP.

[4] = in vivo
Protocol: The dose was calculated from the product of the concentration of the drug in the chamber, the minute volume of the rats (lung vol.×resp. rate), and the time of exposure. In all experiments exposure time was 15 min, male Sprague-Dawley rats with an average weight of 250 g were used, and the minute volume of the rats was assumed to be 70 ml. Rats were treated in groups of four. […] The aerosol was generated by oxygen flowing at 8 l/min through the nebulizer (Cadema Medical Products, part no. CA 61, Middletown, N.Y.). The drug solution was aerosolized at 0.3 ml/min with an expected mean particle diameter of 0.5-0.8 micron. […] This concentration multiplied by the minute volume and the exposure time gives a dose of 1.0 mg; since the rats weighed 0.25 kg, the dose was 4.0 mg/kg. Doses in all trials were calculated as above.
Four rats were studied at each time.

[5] = tested on: Pneumocystis carinii; conditions: animal model of PCP; cited from earlier work
[6] = Pentamidine tissue concentrations in humans after intravenous infusions; conditions: human, IV 4.0 mg/kg/day
[7] = cited from earlier work
[8] = rat, aerosol doses greatly exceeding the therapeutic dose; cited from earlier work
[9] = in vivo; conditions: rat, im, 4 mg/kg, level in the lungs
Protocol: Intramuscular (IM) doses were administered to the hindcalves of male Sprague-Dawley rats (240-260 g, Charles River Breeding Laboratories, Wilmington, Mass.).
Animals were sacrificed at 24 h after the last dose.

[10] = in vivo; conditions: rat; for Pentamidine concentration, Kidney: aerosol 0.4 mg/kg/day, 24 h after last dose
Protocol: as §1

[11] = aerosol 45 mg, weekly for four weeks then biweekly
[12] = rat, in vivo, inhaled or intranasal, 4 mg/kg

SMILES: N=C(N)c1ccc(OCCCCCOc2ccc(C(=N)N)cc2)cc1 [pentamidine, Pentamidine isethionate]
- resistance to infection after a single IM dose ([1]; human volunteers, weekly bites from infected tse-tse flies): resisted infection for one year or more
- chemoprophylaxis of African trypanosomiasis ([1]; human): effective in the chemoprophylaxis of African trypanosomiasis
- elimination of infection in endemic areas ([1]; twice-yearly IV or IM doses, Africa): eliminated the infection in endemic areas
- concentration at 24 h ([2]; kidney): 7200 ng/g
- concentration at 24 h ([2]; lung): 291000 ng/g
- lung weight and appearance ([2]; aerosol 3.2 mg/kg daily × 4): normal in weight and appearance
- toxicity of high lung concentrations ([2]; aerosol 3.2 mg/kg daily × 4): little or no toxicity
- tolerability of treatments ([2]; aerosol 3.2 mg/kg daily × 4 (total dose 12.8 mg/kg)): well-tolerated
- histopathology of lungs ([2]; aerosol 3.2 mg/kg daily × 4, stained sections): no histopathologic changes were found
- proven episodes of PCP ([3]; aerosol 30 mg biweekly, 60 patients, 1-12 months): Five
- proven episodes of PCP in patients who skipped one or more scheduled doses ([3]; aerosol 30 mg biweekly, skipped doses): six
- proven or possible episodes of PCP ([3]; aerosol 30 mg biweekly, twelve patients, three months): no patient had a proven or possible episode of PCP
- protection ([3]; aerosol 30 mg dose): not reliably protective
- patients with proven episodes of PCP [3, 11]: two
- severity of PCP episodes [3, 11]: very mild episodes
- mild cases of PCP ([3]; all phases, 960 doses, 116 patients): seven
- protection ([3]; all phases, preliminary evidence): at least partially protective
- amount retained per animal ([4]; rat, in vivo, 4 mg/kg): 60 µg
- fraction of inhaled drug retained ([4]; rat, in vivo, 4 mg/kg): about 6.0%
- retained dose ([4]; rat, in vivo, 4 mg/kg): 0.24 mg/kg
- amount of drug retained in the lungs [4, 12]: about 40 mcg/g
- half-life [4, 12]: 36 days
- retention in the lungs ([4]; single aerosol dose): retained in the lungs for many weeks
- prophylaxis of PCP with IV or IM pentamidine [5]: unsuccessful in the animal model of PCP
- Pentamidine concentration, Adrenal ([6]; 1 dose): 19 µg/g
- Pentamidine concentration, Kidney ([6]; 1 dose): 8.5 µg/g
- Pentamidine concentration, Liver ([6]; 1 dose): 35 µg/g
- Pentamidine concentration, Spleen ([6]; 1 dose): 40 µg/g
- Pentamidine concentration, Kidney ([6]; 2 doses): 13 µg/g
- Pentamidine concentration, Liver ([6]; 2 doses): 23 µg/g
- Pentamidine concentration, Spleen ([6]; 2 doses): 40 µg/g
- Pentamidine concentration, Kidney ([6]; 5 doses): 62 µg/g
- Pentamidine concentration, Liver ([6]; 5 doses): 112 µg/g
- Pentamidine concentration, Lung ([6]; 5 doses): 42 µg/g
- Pentamidine concentration, Spleen ([6]; 5 doses): 28 µg/g
- Pentamidine concentration, Adrenal ([6]; 15 doses): 92 µg/g
- Pentamidine concentration, Kidney ([6]; 15 doses): 123 µg/g
- Pentamidine concentration, Liver ([6]; 15 doses): 300 µg/g
- Pentamidine concentration, Lung ([6]; 15 doses): 56 µg/g
- Pentamidine concentration, Spleen ([6]; 15 doses): 368 µg/g
- elimination from blood ([7]; IV or IM): eliminated rapidly from blood
- elimination from tissues ([7]; in vivo): eliminated slowly from them
- toxicity in histopathologic sections from the lungs [8]: No toxicity was seen
- concentration at 24 h [9]: 800 ng/g
- Pentamidine concentration, Kidney ([10]; 1 dose): NMA
- Pentamidine concentration, Kidney ([10]; 2 doses): NMA
- Pentamidine concentration, Kidney ([10]; 4 doses): NMA
- concentration at 24 h ([10]; in vivo, inhaled or intranasal, 0.4 mg/kg/day, levels in the lung): 60500 ng/g

From patent publication US5262157A (priority 1988, dated 1993)
